Read-outs that look alike come from different tables or passages of the source.

Common to all, as to assay type: cell-based, human
One assay has as its system H1650. Nature of the assay: Non Small Cell Lung Cancer proliferation assay (Alamar Blue reduction), H1650. To be noted: primary screening, 10 μM compound in 1% DMSO (v/v); for inhibition at 10 µM: Homo sapiens, NCI-H1650. Put shortly:
(§1)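 Compounds are tested at 1% DMSO final concentration against adherent NSCLC cells for 48 h at 37° C, with cytotoxicity measured by Alamar Blue reduction after a further 48 h incubation.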
On the technique in general: Alamar Blue is a resazurin reagent that responds to reducing activity.

A further assay has as its system H1975. Nature of the assay: Non Small Cell Lung Cancer proliferation assay (Alamar Blue reduction), H1975. Conditions: primary screening, 10 μM compound in 1% DMSO (v/v); for inhibition at 10 µM: Homo sapiens, NCI-H1975. Put shortly:
as §1

The next assay has as its system H2030. Nature of the assay: Non Small Cell Lung Cancer proliferation assay (Alamar Blue reduction), H2030. To be noted: primary screening, 10 μM compound in 1% DMSO (v/v); for inhibition at 10 µM: Homo sapiens, NCI-H2030. The gist of the method: as §1
A further assay concerns H3255. Nature of the assay: Non Small Cell Lung Cancer proliferation assay (Alamar Blue reduction), H3255. Conditions: primary screening, 10 μM compound in 1% DMSO (v/v); for inhibition at 10 µM: Homo sapiens, NCI-H3255. The gist of the method:
as §1

[1] abbreviates: H1650, read-out: PRIMARY HTS [%] H1650 (percentage inhibition).
Setting [2] is: H1975, read-out: PRIMARY HTS [%] H1975 (percentage inhibition).
[3] abbreviates: H2030, read-out: PRIMARY HTS [%] H2030 (percentage inhibition).
[4] abbreviates: H3255, read-out: PRIMARY HTS [%] H3255 (percentage inhibition).
The mark [5] stands for this setting: read-out: percentage inhibition H1650.
The mark [6] stands for this setting: read-out: percentage inhibition H1975.
Setting [7] is: read-out: percentage inhibition H2030.
[8] abbreviates: read-out: percentage inhibition H3255.

For `Cc1cc(Cl)ccc1NC(=O)CN1CCN(C(=O)c2ccco2)CC1` [compound 83809], the inhibition at 10 µM with H1650 (setting [1]) is 22%; in the assay with H1975 (setting [2]), -10%; in the assay with H2030 (setting [3]) it was 2%; in the assay with H3255 (setting [4]), 2%.
Consider `CCSc1cnn(-c2ccccc2)c(=O)c1Cl` [compound 103997], for which the inhibition at 10 µM in the assay on H1650 (setting [5]) is -15%; in the assay on H1975 (setting [6]), 98%; with H2030 (setting [7]), 9%; in the assay with H3255 (setting [8]) it was 2%.
Regarding `CCCOc1cnn(-c2ccccc2)c(=O)c1Cl` [compound 179389], the inhibition at 10 µM is -3% in the assay with H1650 (setting [5]), 1% with H1975 (setting [6]), 8% in the assay on H2030 (setting [7]) and 28% in the assay with H3255 (setting [8]).
As to `O=C(Nc1ccc(Cl)cc1)c1ccco1` [compound 78158], the inhibition at 10 µM in the assay on H1650 (setting [1]) was 20%; in the assay with H1975 (setting [2]) it was -2%; in the assay on H2030 (setting [3]), 6%; in the assay with H3255 (setting [4]), 4%.
Consider `CCCCSc1cnn(-c2ccccc2)c(=O)c1SCc1ccccc1` [compound 208696], for which the inhibition at 10 µM in the assay with H1650 (setting [5]) is -2%; in the assay with H1975 (setting [6]) it was -19%; with H2030 (setting [7]), 4%; in the assay with H3255 (setting [8]), 37%.
As for `Cc1ccc(C(=O)Nc2ccc3ccccc3c2)o1` [compound 105503], the inhibition at 10 µM with H1650 (setting [1]) was -10%; in the assay on H1975 (setting [2]), -13%; in the assay with H2030 (setting [3]), -7%; in the assay on H3255 (setting [4]), 0%.
As to `N#Cc1ccccc1-n1nc(C(=O)c2cccs2)cc(-c2nc3ccccc3[nH]2)c1=N` [compound 186926], the “percentage inhibition H1650” value in the assay with H1650 was 27%. Further, in the assay on H1975, the “percentage inhibition H1975” value is 81%. Also, in the assay on H2030, the “percentage inhibition H2030” value worked out at 2%. Also, the “percentage inhibition H3255” value with H3255 was 52%.
On to `Cc1ccc(-n2nc(C(=O)O)c(/C=C/c3ccc(Cl)cc3Cl)c(C#N)c2=O)cc1C` [compound 227626], for which the inhibition at 10 µM in the assay with H1650 (setting [5]) is -15%; with H1975 (setting [6]) it was -14%; with H2030 (setting [7]), 0%; in the assay on H3255 (setting [8]), 71%.
On to `O=C(Nc1ccc(Cl)cc1)c1cc2c(ccc3ccccc32)o1` [compound 77021], for which the inhibition at 10 µM is 16% with H1650 (setting [1]), -11% in the assay with H1975 (setting [2]), -1% in the assay on H2030 (setting [3]) and 4% with H3255 (setting [4]).
On to `N=c1c(-c2nc3ccccc3[nH]2)cc(C(=O)c2cccs2)nn1-c1ccccc1` [compound 186924], for which the inhibition at 10 µM was 7% in the assay with H1650 (setting [5]), 14% in the assay with H1975 (setting [6]), 1% with H2030 (setting [7]) and 8% in the assay with H3255 (setting [8]).
The corresponding values for `COc1c(Cl)cnn(-c2ccc(Cl)c(C(F)(F)F)c2)c1=O` [compound 174405] are 13%, 28%, -9% and 32%.
With `COc1cnn(-c2ccc(C)cc2)c(=O)c1SCc1ccccc1` [compound 208694], the inhibition at 10 µM in the assay on H1650 (setting [5]) was -21%; in the assay with H1975 (setting [6]), -29%; in the assay on H2030 (setting [7]), 3%; with H3255 (setting [8]), -16%.
As to `COc1nn(-c2ccccc2)c(=O)c(Cl)c1Cl` [compound 104332], the inhibition at 10 µM was found to be 51% in the assay with H1650 (setting [5]), 99% with H1975 (setting [6]), 87% in the assay on H2030 (setting [7]) and 82% with H3255 (setting [8]).
On to `Cc1ccc(C(=O)Nc2ccc(NC(=O)c3ccco3)c(C)c2)c(Cl)c1` [compound 61302], for which the inhibition at 10 µM with H1650 (setting [1]) was 13%; in the assay with H1975 (setting [2]) it was 16%; with H2030 (setting [3]), -2%; in the assay on H3255 (setting [4]) it was 2%.
The corresponding values for `O=C(Nc1ccc(N2CCN(Cc3ccccc3)CC2)cc1)c1ccco1` [compound 93911] are -4%, -22%, -3% and -1%.
For the compound `CCOC(=O)NCCOc1cnn(-c2ccccc2)c(=O)c1Cl` [compound 201622], the inhibition at 10 µM is 5% in the assay on H1650 (setting [5]), -23% in the assay on H1975 (setting [6]), 4% with H2030 (setting [7]) and 33% in the assay with H3255 (setting [8]).
Turning to `Cc1ccc(-n2ncc(SCc3ccccc3)c(Cl)c2=O)cc1` [compound 182830], the inhibition at 10 µM in the assay with H1650 (setting [5]) was 20%; with H1975 (setting [6]), 10%; in the assay with H2030 (setting [7]) it was 3%; with H3255 (setting [8]) it was -4%.
As to `Nc1ccc(NC(=O)c2ccco2)c(Cl)c1` [compound 82456], the inhibition at 10 µM is 6% with H1650 (setting [1]), -15% in the assay with H1975 (setting [2]), -2% with H2030 (setting [3]) and 2% with H3255 (setting [4]).
Turning to `COc1cnn(-c2cccc(C)c2)c(=O)c1Cl` [compound 104325], the inhibition at 10 µM in the assay with H1650 (setting [5]) was -31%; in the assay with H1975 (setting [6]), -12%; with H2030 (setting [7]), 2%; in the assay on H3255 (setting [8]) it was 4%.
As to `O=C(Nc1cc(C(F)(F)F)ccc1Cl)c1ccc([N+](=O)[O-])o1` [compound 104039], the inhibition at 10 µM in the assay with H1650 (setting [1]) came out at 61%; in the assay on H1975 (setting [2]), 69%; in the assay on H2030 (setting [3]), 13%; in the assay with H3255 (setting [4]), 6%.
Regarding `COc1ccc(Sc2cnn(-c3ccccc3)c(=O)c2Cl)cc1` [compound 181862], the inhibition at 10 µM in the assay on H1650 (setting [5]) was 7%; with H1975 (setting [6]) it was 3%; in the assay with H2030 (setting [7]), 9%; in the assay with H3255 (setting [8]), 22%.
Turning to `Cc1cccnc1NC(=O)c1ccc([N+](=O)[O-])o1` [compound 108321], in the assay with H1650 (H1650), the “PRIMARY HTS [%] H1650 (percentage inhibition)” value was found to be 38%. For the same compound, the “PRIMARY HTS [%] H1975 (percentage inhibition)” value in the assay with H1975 (H1975) is −7%. In the assay on H2030 (H2030), the “PRIMARY HTS [%] H2030 (percentage inhibition)” value came to 6%. Further, the “PRIMARY HTS [%] H3255 (percentage inhibition)” value in the assay on H3255 (H3255) came to 2%.
`Cc1cccc(-n2ncc(SCc3ccccc3)c(SCc3ccccc3)c2=O)c1` [compound 208703]: the inhibition at 10 µM was 2% in the assay on H1650 (setting [5]), -18% with H1975 (setting [6]), 9% in the assay with H2030 (setting [7]) and 16% with H3255 (setting [8]).
The corresponding values for `O=c1ccc(O)nn1-c1ccccc1` [compound 189286] are 0%, 9%, 5% and -15%.
For `CC(C)(C)NC(=O)c1ccc(NC(=O)c2ccco2)cc1` [compound 91753], the inhibition at 10 µM in the assay on H1650 (setting [1]) was -3%; in the assay on H1975 (setting [2]) it was -22%; with H2030 (setting [3]), -5%; with H3255 (setting [4]), -1%.
As to `O=c1c(SCc2ccccc2)c(Cl)cnn1-c1ccccc1` [compound 182827], the inhibition at 10 µM with H1650 (setting [5]) is -20%; with H1975 (setting [6]), 14%; in the assay on H2030 (setting [7]), -6%; in the assay on H3255 (setting [8]) it was -24%.
The corresponding values for `COc1cnn(-c2ccccc2)c(=O)c1SCc1ccc(Cl)c(Cl)c1` [compound 182729] are 10%, 23%, -14% and 1%.
In the case of `O=C(CSc1cnn(-c2ccccc2)c(=O)c1Cl)c1ccc(Br)cc1` [compound 183073], the inhibition at 10 µM with H1650 (setting [5]) was -3%; in the assay on H1975 (setting [6]), -6%; in the assay with H2030 (setting [7]), 8%; in the assay on H3255 (setting [8]), 30%.
Consider `O=[N+]([O-])c1ccc(CN2CCN(c3ccccc3F)CC2)o1` [compound 100792], for which the inhibition at 10 µM with H1650 (setting [1]) is -5%; in the assay on H1975 (setting [2]), -9%; in the assay on H2030 (setting [3]), 43%; with H3255 (setting [4]), 1%.
For `O=C(c1ccc([N+](=O)[O-])o1)N(c1ccccc1)c1ccccc1` [compound 98705], in that order: -8%, 14%, 8% and 9%.

The inhibition is the change of the read-out against control, counted positive when it falls.

These data come from patent US20100210649A1, “PYRIDAZINONES AND FURAN-CONTAINING COMPOUNDS” (Sloan-Kettering Institute for Cancer Research, priority 2006, published 2010).
